Measurements from patent US20260115144A1, “THERAPEUTIC NANOPARTICLES ENCAPSULATING TERPENOIDS AND/OR CANNABINOIDS” (priority 2018, published 2026).

How the values were obtained:
[1] = Loss of myrcene during lyophilization for 24 h (weighing); format: physicochemical; details: lyophilized for 24 h; starting weight 8 or 48 mg
Procedure: To investigate whether myrcene is lost during lyophilization, 3 samples of either free myrcene, a mixture of myrcene and water, or a mixture of myrcene, water and PLGA were prepared in duplicate as illustrated in Table 16. Samples were lyophilized for 24 h. The vials containing the samples were weighed before and after lyophilization to calculate the weight of the dried sample.

[2] = molecular target: T1, TRPV1 receptors (Rattus norvegicus, UniProt O35433); assay: Calcium signaling assay (Fluo-4) in HEK TRPV1 cells; format: cell-based; details: 40 μg/ml, 1 h
T1 construct: expressed in transfected cells; host or cells: HEK TRPV1 cells (Helen Turner lab, Chaminade University of Honolulu), kept under geneticin
T1 sequence (O35433 whole entry): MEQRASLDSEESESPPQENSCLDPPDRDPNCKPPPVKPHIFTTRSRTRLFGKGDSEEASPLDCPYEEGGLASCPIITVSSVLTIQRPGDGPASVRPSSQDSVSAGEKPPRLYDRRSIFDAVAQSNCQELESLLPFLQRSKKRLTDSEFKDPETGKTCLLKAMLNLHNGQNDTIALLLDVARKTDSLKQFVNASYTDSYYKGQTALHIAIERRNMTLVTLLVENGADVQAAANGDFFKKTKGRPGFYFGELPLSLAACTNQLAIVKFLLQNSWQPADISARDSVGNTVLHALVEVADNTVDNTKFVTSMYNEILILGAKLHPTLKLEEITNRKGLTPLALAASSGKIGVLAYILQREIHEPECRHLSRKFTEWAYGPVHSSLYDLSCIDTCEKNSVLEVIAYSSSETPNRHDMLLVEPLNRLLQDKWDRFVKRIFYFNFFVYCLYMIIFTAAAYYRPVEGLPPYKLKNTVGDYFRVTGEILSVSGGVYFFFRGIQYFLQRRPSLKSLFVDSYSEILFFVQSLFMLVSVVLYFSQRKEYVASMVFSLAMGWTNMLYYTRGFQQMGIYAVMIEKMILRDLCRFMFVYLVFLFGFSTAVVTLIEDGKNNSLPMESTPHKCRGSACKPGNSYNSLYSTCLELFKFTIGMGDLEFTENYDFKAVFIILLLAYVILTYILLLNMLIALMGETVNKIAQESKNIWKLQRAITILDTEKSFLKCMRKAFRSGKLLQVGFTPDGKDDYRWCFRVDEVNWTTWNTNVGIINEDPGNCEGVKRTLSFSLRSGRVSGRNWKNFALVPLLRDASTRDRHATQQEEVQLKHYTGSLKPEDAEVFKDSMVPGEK
Procedure: HEK TRPV1 cells were provided by the Helen Turner lab at Chaminade University of Honolulu and maintained in MEM essential medium supplemented with 10% FBS, 50 units/ml-50 μg/ml Penicillin-Streptomycin, and 0.6 mg/ml geneticin.
HEK TRPV1 cells were harvested with trypsin, deactivated with media, and counted. Cells were centrifuged at 1000 rpm, for 5 min, at room temperature. Cells were washed twice with 1 mM Ca Assay Buffer (Na Ringers [140 mM NaCl, 2.8 mM KCl, 2 mM MgCl2, 11 mM glucose, 10 mM HEPES], 2 mM Probenecid, 1 mM CaCl2); pH 7.4), and collected by centrifugation at 1000 rpm, for 5 min, at room temperature. Cells were resuspended in 1 μM Fluo-4 (1 μl of 5 mM Fluo-4, mixed with 1 μl of 20% Pluronic F-127 in DMSO, then 5 ml of 1 mM Ca Assay Buffer was added and the mixture incubated at 37° C. for 10 min in the dark), and incubated for 30 min at 37° C. in the dark. Cells were then washed twice with 1 mM Ca assay buffer, then resuspended in the assay buffer and pipetted to opaque-walled 96-well plates at a density of 150,000 cells/180 μl/well. Fluorescence was measured using a plate reader (Synergy HTX, BioTek, USA), at an excitation wavelength of 485 nm and an emission wavelength of 528 nm. Once a baseline was established (3 measurements), 20 μl of the stimulant (free terpenoids, terpenoids-loaded NPs, and controls) solution was added to each well and measurement was continued for 1 h with one read every 40 seconds.
All solutions were prepared in 1 mM Ca Assay Buffer. Free terpenoids were first dissolved in DMSO, then a specific volume was diluted with the assay buffer to produce the required concentration. […]
A calcium signaling assay was utilized to evaluate the ion influx into HEK TRPV1 cells. Cells were dispersed in 1 mM calcium assay buffer and the intracellular calcium levels were measured using a plate reader in the presence of Fluo-4, as the fluorophore. […] Fluorescence changes in response to the free terpenoids, encapsulated terpenoids, and combinations of free and encapsulated terpenoids were detected and compared.

[3] = molecular target: TRPV1 (Homo sapiens, UniProt Q8NER1); details: described in PCT/US2018/033956; cited from earlier work
Sequence of TRPV1 (Q8NER1 whole entry, species assumed): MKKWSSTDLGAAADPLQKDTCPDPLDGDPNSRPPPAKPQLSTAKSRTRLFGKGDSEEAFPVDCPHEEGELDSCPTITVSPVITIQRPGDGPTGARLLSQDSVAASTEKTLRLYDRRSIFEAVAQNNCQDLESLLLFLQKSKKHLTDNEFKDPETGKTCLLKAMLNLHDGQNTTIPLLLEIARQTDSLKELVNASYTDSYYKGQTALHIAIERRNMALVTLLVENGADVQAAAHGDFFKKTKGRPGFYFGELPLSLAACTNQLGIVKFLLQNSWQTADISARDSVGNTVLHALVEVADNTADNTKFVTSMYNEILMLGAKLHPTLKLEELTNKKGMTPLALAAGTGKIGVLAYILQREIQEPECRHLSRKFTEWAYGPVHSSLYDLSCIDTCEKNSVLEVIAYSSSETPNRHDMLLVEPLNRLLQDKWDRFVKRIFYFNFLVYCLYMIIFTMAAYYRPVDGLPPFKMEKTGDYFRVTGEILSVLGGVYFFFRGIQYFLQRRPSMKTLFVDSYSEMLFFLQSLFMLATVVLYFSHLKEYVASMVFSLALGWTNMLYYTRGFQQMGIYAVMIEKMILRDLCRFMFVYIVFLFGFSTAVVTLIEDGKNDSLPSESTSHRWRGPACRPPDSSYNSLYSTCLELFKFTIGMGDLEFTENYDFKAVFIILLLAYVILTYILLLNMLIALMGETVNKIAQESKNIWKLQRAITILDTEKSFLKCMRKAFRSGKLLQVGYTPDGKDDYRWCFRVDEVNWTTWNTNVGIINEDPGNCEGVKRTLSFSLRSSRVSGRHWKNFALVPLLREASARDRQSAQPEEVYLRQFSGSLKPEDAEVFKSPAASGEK

[4] = cited from earlier work

Calcium response (fluorescence change), non-encapsulated individual terpenoids [2] | Structure (SMILES) | Weight after lyophilization [1] | TRPV1 agonist activity [3] | Vapor pressure ([4]; at 25° C.) | Solubility in water [4]
– | C=CC(=C)CCC=C(C)C [Formula F42] | 0.88 mg | – | – | –
induced a calcium response | C=CC(C)(O)CCC=C(C)CCC=C(C)C (stereo not shown) [nerolidol, 3,7,11-Trimethyl-1,6,10-dodecatrien-3-ol] | – | – | – | –
lowest calcium responses | C=C1CC/C=C(\C)CC[C@@H]2[C@@H]1CC2(C)C [β-caryophyllene, (1R,4E,9S)-4,11,11-Trimethyl-8-methylidenebicyclo[7.2.0]undec-4-ene] | – | – | – | –

Structure (SMILES) | Calcium response (fluorescence change), non-encapsulated individual terpenoids [2] | Weight after lyophilization [1] | TRPV1 agonist activity [3] | Vapor pressure ([4]; at 25° C.) | Solubility in water [4]
C=CC(=C)CCC=C(C)C [myrcene, 7-methyl-3-methylideneocta-1,6-diene] | most intense response | – | TRPV1 agonist that causes TRPV1 desensitization after prolonged exposure | 2.09 mm Hg | not soluble in water
